Laboratory results from patent US10640534B2 (Agios Pharmaceuticals, Inc., priority 2012, dated 2020).

Columns and labels:
U87MG cells = experiment: Cellular assay, inhibition of 2-HG production in U87MG cells; format: cell-based
Procedure, shortened: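 HT1080 or U87MG cells (U87MG kept with 500 ug/mL G418) seeded at 5000 cells/well and treated with compound at 0.2% final DMSO. Incubated 48 h at 37 °C. 2-HG inhibition determined by LC-MS. Viability read by CellTiter-Glo luminescence at 72 h post-dose.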

HT1080 cells = experiment: Cellular assay, inhibition of 2-HG production in HT1080 cells; format: cell-based
Protocol: Cells (HT1080 or U87MG) are grown in T125 flasks in DMEM containing 10% FBS, 1× penicillin/streptomycin and 500 ug/mL G418 (present in U87MG cells only). They are harvested by trypsin and seeded into 96 well white bottom plates at a density of 5000 cell/well in 100 ul/well in DMEM with 10% FBS. […] Cells are incubated overnight at 37° C. in 5% CO2. The next day test compounds are made up at 2× the final concentration and 100 ul are added to each cell well. The final concentration of DMSO is 0.2% and the DMSO control wells are plated in row G. The plates are then placed in the incubator for 48 hours. […] The cell plate is placed back in the incubator for another 24 hours. At 72 hours post compound addition, 10 mL/plate of Promega Cell Titer Glo reagent is thawed and mixed. The cell plate is removed from the incubator and allowed to equilibrate to room temperature. Then 100 ul of Promega Cell Titer Glo reagent is added to each well of media. The cell plate is then placed on an orbital shaker for 10 minutes and then allowed to sit at room temperature for 20 minutes. The plate is then read for luminescence with an integration time of 500 ms.

[1] = inhibition of 2-HG production, U87MG cells, 48 hours
[2] = inhibition of 2-HG production, HT1080 cells, 48 hours

Row | Compound | IC50 (U87MG cells; Homo sapiens, U-87 MG, 48 h) | IC50 (HT1080 cells; Homo sapiens, HT-1080, 48 h) | IC50 (U87MG cells; [1]) | IC50 (HT1080 cells; [2])
1 | O=C(NC1CCC(F)(F)C1)C(c1ccccc1Cl)N(C(=O)[C@@H]1CCC(=O)N1c1ncccn1)c1cccc(F)c1 (mixture of isomers) [Compound 73, (2S)—N-(1-(2-Chlorophenyl)-2-((3,3-difluorocyclopentyl)amino)-2-oxoethyl)-N-(3-fluorophenyl)-5-oxo-1-(pyrimidin-2-yl)pyrrolidine-2-carboxamide] | < 0.1 µM | < 0.1 µM | – | –
2 | CS(=O)(=O)c1cccc(N(C(=O)[C@@H]2CCC(=O)N2c2nccc(C#N)n2)C(C(=O)NC2CC(F)(F)C2)c2ccccc2Cl)c1 (mixture of isomers) [Compound 102, (2S)—N-(1-(2-Chlorophenyl)-2-((3,3-difluorocyclobutyl)amino)-2-oxoethyl)-1-(4-cyanopyrimidin-2-yl)-N-(3-(methylsulfonyl)phenyl)-5-oxopyrrolidine-2-carboxamide] | 0.1 to 0.5 µM | < 0.1 µM | – | –
3 | N#Cc1ccnc(N2C(=O)CC[C@H]2C(=O)N(c2cccc(F)c2)[C@H](C(=O)NC2CC(F)(F)C2)c2c(Cl)cccc2Cl)c1 (single isomer, unassigned) [Compound 63] | < 0.1 µM | < 0.1 µM | – | –
4 | O=C(NC1CCC(F)(F)CC1)[C@@H](c1ccccc1Cl)N(C(=O)[C@@H]1CCC(=O)N1c1ncccn1)c1cccc(F)c1 [Compound 3, (S)—N—((R)-1-(2-Chlorophenyl)-2-((4,4-difluorocyclohexyl)amino)-2-oxoethyl)-N-(3-fluorophenyl)-5-oxo-1-(pyrimidin-2-yl)pyrrolidine-2-carboxamide] | – | 0.1 to 0.5 µM | – | –
5 | O=C(NC1CCCCC1)[C@@H](c1ccccc1Cl)N(C(=O)[C@@H]1CCC(=O)N1c1ncccn1)c1cccc(F)c1 [Compound 6] | – | 0.1 to 0.5 µM | – | –
6 | Cc1cccnc1N1C(=O)CC[C@H]1C(=O)N(c1cccc(F)c1)[C@H](C(=O)NC1CC(F)(F)C1)c1ccccc1Cl [Compound 15] | 0.1 to 0.5 µM | 0.1 to 0.5 µM | – | –
7 | O=C(NC1CC(F)(F)C1)[C@H](c1ccccc1Cl)N(C(=O)[C@@H]1CCC(=O)N1c1nccc2ccccc12)c1cccc(F)c1 [Compound 16] | 0.5 to 1 µM | 0.1 to 0.5 µM | – | –
8 | COc1cccnc1N1C(=O)CC[C@H]1C(=O)N(c1cccc(F)c1)[C@H](C(=O)NC1CC(F)(F)C1)c1ccccc1Cl [Compound 17] | 1 to 2 µM | 0.5 to 1 µM | – | –
9 | Cc1cccc(N2C(=O)CC[C@H]2C(=O)N(c2cccc(F)c2)[C@H](C(=O)NC2CC(F)(F)C2)c2ccccc2Cl)n1 [Compound 28] | – | < 0.1 µM | – | –
10 | O=C(NC1CC(F)(F)C1)[C@H](c1ccccc1Cl)N(C(=O)[C@@H]1CCC(=O)N1c1cc(C(F)(F)F)ccn1)c1cccc(F)c1 [Compound 40] | 0.1 to 0.5 µM | 0.1 to 0.5 µM | – | –
11 | O=C(NC1CC(F)(F)C1)[C@H](c1ccccc1Cl)N(C(=O)[C@@H]1COCC(=O)N1c1ncccn1)c1cccc(F)c1 [Compound 45] | 0.1 to 0.5 µM | 0.1 to 0.5 µM | – | –
12 | O=C(NC1CC(F)(F)C1)[C@H](c1ccccc1Cl)N(C(=O)[C@@H]1CCC(=O)N1c1ccc(Cl)cn1)c1cccc(F)c1 [Compound 48] | 0.1 to 0.5 µM | 0.1 to 0.5 µM | – | –
13 | O=C(NC1CC(F)C1)[C@H](c1ccccc1Cl)N(C(=O)[C@@H]1CCC(=O)N1c1ncccn1)c1cccc(F)c1 (stereo partly shown) [Compound 49] | 0.1 to 0.5 µM | 0.1 to 0.5 µM | – | –
14 | CC(C)(C)c1cccc(N(C(=O)[C@@H]2CCC(=O)N2c2nccc(C#N)n2)[C@H](C(=O)NC2CC(F)(F)C2)c2ccccc2Cl)c1 [Compound 165, (S)—N-(3-(tert-Butyl)phenyl)-N—((S)-1-(2-chlorophenyl)-2-((3,3-difluorocyclobutyl)amino)-2-oxoethyl)-1-(4-cyanopyrimidin-2-yl)-5-oxopyrrolidine-2-carboxamide] | < 0.1 µM | < 0.1 µM | – | –
15 | N#Cc1cccc(N(C(=O)[C@@H]2CCC(=O)N2c2nccc(C#N)n2)[C@H](C(=O)NC2CCC(F)(F)CC2)c2ccccc2Cl)c1 [Compound 178, (S)—N—((S)-1-(2-Chlorophenyl)-2-((4,4-difluorocyclohexyl)amino)-2-oxoethyl)-N-(3-cyanophenyl)-1-(4-cyanopyrimidin-2-yl)-5-oxopyrrolidine-2-carboxamide] | < 0.1 µM | 0.1 to 0.5 µM | – | –
16 | N#Cc1ccnc(N2C(=O)CC[C@H]2C(=O)N(c2cccc(OC3CC3)c2)C(C(=O)NC2CC(F)(F)C2)c2ccccc2Cl)n1 (stereo partly drawn) [Compound 192, (2S)—N-(1-(2-Chlorophenyl)-2-((3,3-difluorocyclobutyl)amino)-2-oxoethyl)-1-(4-cyanopyrimidin-2-yl)-N-(3-cyclopropoxyphenyl)-5-oxopyrrolidine-2-carboxamide] | < 0.1 µM | < 0.1 µM | – | –
17 | (2S)—N-(1-(2-Chlorophenyl)-2-((3,3-difluorocyclobutyl)amino)-2-oxoethyl)-1-(4-cyanopyridin-2-yl)-N-(3-fluoro-5-(methylsulfonyl)phenyl)-5-oxopyrrolidine-2-carboxamide [Compound 110] | – | – | < 0.1 µM | < 0.1 µM
18 | (S)-tert-butyl 3-(((S)-1-(2-chlorophenyl)-2-((3,3-difluorocyclobutyl)amino)-2-oxoethyl)(3,5-difluorophenyl)carbamoyl)-5-oxopiperazine-1-carboxylate [Compound 97] | – | – | < 0.1 µM | < 0.1 µM

Second part, the compound after the results:

Row | IC50 (U87MG cells; Homo sapiens, U-87 MG, 48 h) | IC50 (HT1080 cells; Homo sapiens, HT-1080, 48 h) | IC50 (U87MG cells; [1]) | IC50 (HT1080 cells; [2]) | Compound
19 | < 0.1 µM | < 0.1 µM | – | – | N#Cc1ccnc(N2C(=O)CC[C@H]2C(=O)N(c2cccc(-c3cn[nH]c3)c2)[C@H](C(=O)NC2CC(F)(F)C2)c2ccccc2Cl)c1 (single isomer, unassigned) [Compound 200]
20 | < 0.1 µM | – | – | – | N#Cc1ccnc(N2C(=O)CC[C@H]2C(=O)N(c2ccc3[nH]ncc3c2)[C@H](C(=O)NC2CCC(F)(F)CC2)c2ccccc2Cl)c1 [Compound 203, (S)—N—((S)-1-(2-Chlorophenyl)-2-((4,4-difluorocyclohexyl)amino)-2-oxoethyl)-1-(4-cyanopyridin-2-yl)-N-(1H-indazol-5-yl)-5-oxopyrrolidine-2-carboxamide]
21 | < 0.1 µM | – | – | – | N#Cc1ccnc(N2C(=O)CC[C@H]2C(=O)N(c2cc(F)cc(C3CC3)c2)[C@H](C(=O)NC2CC(F)(F)C2)c2ccccc2Cl)c1 [Compound 204, (S)—N—((S)-1-(2-Chlorophenyl)-2-((3,3-difluorocyclobutyl)amino)-2-oxoethyl)-1-(4-cyanopyridin-2-yl)-N-(3-cyclopropyl-5-fluorophenyl)-5-oxopyrrolidine-2-carboxamide]
22 | < 0.1 µM | – | – | – | N#Cc1ccnc(N2C(=O)CC[C@H]2C(=O)N(c2ccc3[nH]ccc3c2)[C@H](C(=O)NC2CC(F)(F)C2)c2ccccc2Cl)c1 [Compound 206, (S)—N—((S)-1-(2-Chlorophenyl)-2-((3,3-difluorocyclobutyl)amino)-2-oxoethyl)-1-(4-cyanopyridin-2-yl)-N-(1H-indol-5-yl)-5-oxopyrrolidine-2-carboxamide]
23 | < 0.1 µM | – | – | – | N#Cc1cc(F)cc(N(C(=O)[C@@H]2CCC(=O)N2c2cc(C#N)ccn2)[C@H](C(=O)NC2CC(F)(F)C2)c2ccccc2F)c1 [Compound 207, (S)—N-(3-Cyano-5-fluorophenyl)-1-(4-cyanopyridin-2-yl)-N—((S)-2-((3,3-difluorocyclobutyl)amino)-1-(2-fluorophenyl)-2-oxoethyl)-5-oxopyrrolidine-2-carboxamide]
24 | < 0.1 µM | – | – | – | Cn1ccc2cc(N(C(=O)[C@@H]3CCC(=O)N3c3cc(C#N)ccn3)[C@H](C(=O)NC3CC(F)(F)C3)c3ccccc3Cl)ccc21 [Compound 209, (S)—N—((S)-1-(2-Chlorophenyl)-2-((3,3-difluorocyclobutyl)amino)-2-oxoethyl)-1-(4-cyanopyridin-2-yl)-N-(1-methyl-1H-indol-5-yl)-5-oxopyrrolidine-2-carboxamide]
25 | < 0.1 µM | – | – | – | N#Cc1ccnc(N2C(=O)CC[C@H]2C(=O)N(c2cc(F)cc(F)c2)[C@H](C(=O)NC2CC(F)(F)C2)c2ccccc2)c1 [Compound 210, (S)-1-(4-Cyanopyridin-2-yl)-N—((S)-2-(3,3-difluorocyclobutylamino)-2-oxo-1-phenylethyl)-N-(3,5-difluorophenyl)-5-oxopyrrolidine-2-carboxamide]
26 | < 0.1 µM | – | – | – | N#Cc1cc(F)cc(N(C(=O)[C@@H]2CCC(=O)N2c2cc(C#N)ccn2)[C@H](C(=O)NC2CC(F)(F)C2)c2ccccc2)c1 [Compound 211, (S)—N-(3-Cyano-5-fluorophenyl)-1-(4-cyanopyridin-2-yl)-N—((S)-2-(3,3-difluorocyclobutyl-amino)-2-oxo-1-phenylethyl)-5-oxopyrrolidine-2-carboxamide]
27 | < 0.1 µM | < 0.1 µM | – | – | N#Cc1cncc(N(C(=O)[C@@H]2CCC(=O)N2c2cc(C#N)ccn2)[C@H](C(=O)NC2CC(F)(F)C2)c2ccccc2)c1 [Compound 212]
28 | – | – | < 0.1 µM | < 0.1 µM | (S)-1-(4-Cyanopyridin-2-yl)-N—((S)-2-(3,3-difluorocyclobutylamino)-1-(2-fluorophenyl)-2-oxoethyl)-N-(3,5-difluorophenyl)-5-oxopyrrolidine-2-carboxamide [Compound 208]
